Here are results for seven compounds from patent US9920300B2, “Induction of germ cells from pluripotent cells” (The Board of Trustees of the Leland Stanford Junior …, priority 2009, dated 2018).

The test system of one series is DAZ. The experiment in a line: shRNA silencing of DAZ2-V5 and DAZ1-4 in 293T/293FT cells (Western). In kind it is cell-based, human. The note with it: for Protein level of DAZ2-V5: cotransfected. The protocol: All shRNAs targeting human DAZL, DAZ and BOULE were constructed using the Block-iT inducible H1 lentiviral system (Invitrogen). All shRNAs were first introduced into pENTR/H1/TO vectors and transferred into pLenti4/BLOCK-iT-DEST destination vectors (see below for sequence information). When shRNA was tested in 293FT cells for its efficacy of silencing, transient transfection without selection was carried out and cell lysate was collected after 24 h. After specific shRNA was chosen, viral supernatant was prepared as described for pLVGV. Subsequently, the viral supernatant was used to transduce human ES cells on matrigel as described above, except with zeocin selection (2 μg/ml) for 3 days for stable integration of the shRNA vector into human ES cells. Overexpression vectors were constructed by inserting the EF1μ, promoter, and DAZL, DAZ2 or BOULE cDNA into the p2k7bias vectors, selected with blasticidin (2 μg ml^−1) in culture for 3 days to ensure stable integration and subjected for each differentiation experiment. shRNA sequences were:
cDNA clones of DAZ1-4 (NCBI accession numbers: DAZ1, BC11492; DAZ2, NM_020363; DAZ3, BC113005; DAZ4, BC047480) were obtained from ATCC, PCR amplified, cloned into pENTR-D-TOPO vector, and subsequently cloned into pLenti4/TO/V5-DEST (Invitrogen). […] Co-transfection of the overexpression vector and shDAZ4 at the ratio of 1:1 and 1:2 into 293FT cells was carried out and all the lysates were collected after 24 h and loaded equally onto 10% SDS-PAGE gel.

The subject of the next series is mouse fetal germ cells. The note with it: mouse fetal germ cells incubated with PAHs; cited from earlier work.
Series [1] deals with hESCs (H9) differentiating to germ cells. Kind of series: qPCR gene expression in hESCs differentiated with BMPs in the presence of PAHs. In kind it is cell-based, human. The protocol: (§1) A federally approved hESC line (H9, XX) was maintained and differentiated as previously described (see methods of Kee, K., et al. (2006) Stem Cells & Differentiation 15: 831-837, the disclosure of which is incorporated herein). Briefly, adherent differentiation began upon the addition of differentiation media containing 20% FBS (Hyclone) and supplemented with Bone Morphogenetic Proteins (BMPs) -4, -7, and -8b (R&D) reconstituted in 4 mM HCl/0.1% BSA and used at 50 ng/ml. DMBA (Sigma), ANF (Sigma) and DMBA-DHD(MRI) were dissolved in DMSO at a 1:1000 dilution before adding to the media to the indicated final concentrations.
Total RNA was extracted using the RNeasy kit (Qiagen) and cDNA prepared with SuperScriptIII (Invitrogen) according to the manufacturer's protocols using 1 μg RNA. The cDNA was subjected to a pre-amplification using 1.25 μl out of 20 μl total cDNA, 1 μl Platinum Taq (Invitrogen), 5 μl CellsDirect 2× Reaction Buffer and 2.5 μl 0.2× Taqman (Applied Biosystem) probe mix. PCR cycle program for pre-amplification is: 95° C., 10 minutes; 95° C., 15 seconds and 60° C., 4 minutes for 14 cycles. Assays and samples are prepared according to the Fluidigm protocol and run on a 48×48 chip. BioMark (Fluidigm) program was used to obtain delta Ct value before imported into Excel file sheet to calculate delta-delta Ct value=2^(CtGene−CtHousekeeping genes). The delta-delta Ct value is then normalized to the control of each experiment to obtain the final normalized expression level. All delta-delta Ct values were calculated using four housekeeping genes (GAPDH, CTNNB1, ACTS, CENTRIN) except in experiment in FIG. 35, which only used GAPDH as housekeeping gene in a regular qPCR reaction in 7300 Real Time PCR System (Applied Biosystems).
(In general: Real-time PCR tracks product formation cycle by cycle.)

Series [2] deals with VASA:GFP+ and VASA:GFP− cells. Kind of series: Caspase 3/7 apoptosis assay in FACS-sorted cells. In kind it is cell-based, human. The note with it: 1 μM DMBA-DHD. The protocol:
Single cell suspensions were prepared by incubating differentiated hESCs in Collagenase Type IV (1 mg/ml) for ten minutes, followed by ten minutes in TrypLE (Invitrogen). Cell pellet was resuspended in 0.5 ml differentiated media and passed through a 40 μm strainer. Cell suspensions were then subjected to FACS analysis with BD FACSAria system (BD). Cells were sorted for either VASA:GFP+ or VASA:GFP−. 1000 cells of each group were collected in 100 μl PBS and mixed with 100 μl of Caspase-Glo 3/7 reagent according to manufacturer protocol (Promega). Luminescence was measured after 1 hour of incubation at room temperature with Fluostar Optima (BMG).

The test system of series [3] is VASA:GFP+ PGCs from hESCs. The experiment in a line: VASA:GFP reporter FACS of hESCs with DMBA-DHD and shAHR (Example 3). The class given is cell-based, human. As for the experimental part:
as §1
shRNA was used to target AHR by the BLOCK-IT™ Inducible H1 Lentiviral RNAi System (Invitrogen). Double stranded oligos were generated, ligated into the pENTR vector and transfected into 293FT cells for initial screening. After 24 hours, RNA was harvested using the RNeasy kit and cDNA generated using SuperScriptIII with 1 μg total RNA input. The destination lentiviral vector was generated by recombining the pENTR vector with the pLenti4/BLOCK-it-DEST vector via the Gateway technology according to the manufacturer's protocol. Lentiviral supernatant carrying the pLenti4/BLOCK-it-DEST-shAHR vector was generated by co-transfection with 10 μg of each vector with 10 μg Vsvg and 15 μg Δ8.9 into 293FT cells grow on T175 plates. Supernatant was harvested after three days and either used immediately for transduction of hESCs or frozen at −80° C. until further usage. hESCs prepared for transduction were plated to 50% confluency on matrigel coated plates. Polybrene was added to the lentivirus supernatant for a final concentration of 8 μg/ml. […]
Single cell suspensions were prepared by incubating differentiated hESCs in Collagenase Type IV (1 mg/ml) for ten minutes, followed by ten minutes in TrypLE (Invitrogen). […] Luminescence was measured after 1 hour of incubation at room temperature with Fluostar Optima (BMG).

Another series has as its system DAZL and VASA. The experiment in a line: Western blot of DAZL and VASA in human ES cells after silencing/overexpression. The class given is cell-based. The note with it: human ES cells differentiated 14 days with BMPs. The protocol: (§2) To collect the adherently differentiated cells, cells were washed with 3 ml cold PBS without Ca^2+ and Mg^2+, then scraped from the plate in 1 ml PBS plus 2× protease inhibitors (Complete Mini, Roche) and transferred immediately to a 1.5-ml tube on ice. The PBS cell suspension was then spun at 5,000 r.p.m. in a microcentrifuge for 3 min and the supernatant was discarded. The cell pellet was resuspended with 200 ul RIPA buffer (50 mM Tris, 150 mM NaCl, 0.5% sodium deoxycholate, 1% NP-40, 0.1% SDS, pH 8) plus 2× protease inhibitors (Complete Mini, Roche). The cell pellet suspension was pipetted rigorously at least 10 times, then vortexed for 30 sec. The suspension was again spun down for 3 min at the same speed. The supernatant was measured for protein concentration and denatured at a 1:1 ratio with 2× Laemmli buffer at 95° C. for 5 min, then loaded onto either a 10% or 12% SDS-PAGE gel. The SDS-PAGE gels were run at 150 V for 1 h and transferred to a PVDF membrane for 1 h at 100 V in CAPS buffer (10 mM CAPS, 10% methanol, pH 11). Transferred blots were blocked in 5% non-fat milk for 1 h at room temperature. […]
(Immunoblotting shows a protein as a band on a membrane.)

The next series concerns DAZL. Kind of series: shRNA silencing of DAZL-V5 / DAZL:GFP cotransfected in 293T cells. In kind it is cell-based, human. As for the experimental part: as §2

“shDAZ3: shRNA 5′-GCCACGTCCTTTGGTAGTTAA-3′, SEQ ID NO: 33”: the “Protein level of DAZ2-V5” value in the series on DAZ is “significantly decreased”.

As to `O=c1cc(-c2ccccc2)oc2c1ccc1ccccc12` [ANF, α-napthoflavone], the “Fetal germ cell toxicity of PAHs” value in the series on mouse fetal germ cells is “could be prevented”. Further, in series [1] (ANF added with DMBA-DHD), the “Rescue of KDR and NES expression” value is given as “no rescue”. For the same compound, in series [1] (ANF added with DMBA-DHD, relative to DMBA-DHD addition alone), the “Expression of germ cell markers VASA, DAZL and PRDM1” value is given as “increased”. In addition, in series [1] (ANF added with DMBA-DHD, relative to DMBA-DHD alone), the BAX expression result is on record as “decreased”.

Take “shDAZ1: shRNA 5′-GCAAATCCTGAGACTCCAAAC-3′, SEQ ID NO: 31”: in the series with DAZ, the “Protein level of DAZ2-V5” value is “significantly decreased”.

With “shDAZ4: shRNA 5′-GCATTTCCTGCTTATCCAAAT-3′, SEQ ID NO: 34”, the “Silencing of DAZ1-4 proteins” value in the series with DAZ (293FT cells) is listed as “all four DAZ proteins were silenced”. In the series on DAZ, the “Protein level of DAZ2-V5” value is on record as “significantly decreased”.

Consider `Cc1c2ccccc2c(C)c2c3c(ccc12)C(O)C(O)C=C3` (centres unmarked) [DMBA-DHD, DMBA-3,4-dihydrodiol], for which, in series [2] (VASA:GFP+ cells), the “Apoptosis activity (Caspase 3/7)” value is “significantly increased”. For the same compound, the “Apoptosis activity (Caspase 3/7)” value in series [2] (VASA:GFP− cells) was “not in the VASA:GFP− cells”. Moreover, the “Potency relative to DMBA (decrease in germ cell specific gene expression)” value in series [1] (0.1 μM DMBA-DHD comparable to 1 μM DMBA, 1 μM DMBA-DHD more potent than 10 μM DMBA) is given as “at least one log”. Moreover, in series [1] (hESCs differentiated with BMPs), the “Expression of AFP and CDX2” value is reported as “not reproducibly reduced”; the “Expression of somatic markers KDR and NES” value is recorded as “did not significantly alter”. Besides, the “Increase of BAX expression” value in series [1] (hESCs differentiated with BMPs, vs DMSO control) was 20 fold. Further, the “Number of PGCs out of 20,000 differentiated hESCs” value in series [3] (hESCs carrying shLacZ, 1 μM DMBA-DHD, control 908) is recorded as ~626. Further, the “Percentage of VASA:GFP+ PGCs” value in series [3] (hESCs carrying shLacZ, 14 days BMP induction, 1 μM DMBA-DHD, untreated control 4.5%) was 3.1%. Further, in series [3] (in the presence of DMBA-DHD), the “Reduction in human PGCs” value is given as “less than two-fold”.

With “shDAZ5: shRNA 5′-GCATTTCCTGCTTATCCAAGT-3′, SEQ ID NO: 35”, in the series with DAZ, the “Protein level of DAZ2-V5” value is “significantly decreased”.

As to “shDAZL2: shRNA 5′-GCATATCCTACTTACCCAAAT-3′, SEQ ID NO: 25”, the “Expression of DAZL and VASA” value with DAZL and VASA is on record as “significantly reduced”. Moreover, the “Silencing of DAZL:GFP fusion protein” value in the series on DAZL is “most effective”.
